What follows are compounds tested against T1, urease enzyme (Canavalia ensiformis, UniProt P07374) (assay: Urease inhibition assay (modified Berthelot assay)). Details: not given.
T1 construct: purchased CAS Number: 9002-13-5
T1 sequence (P07374 whole entry, looked up): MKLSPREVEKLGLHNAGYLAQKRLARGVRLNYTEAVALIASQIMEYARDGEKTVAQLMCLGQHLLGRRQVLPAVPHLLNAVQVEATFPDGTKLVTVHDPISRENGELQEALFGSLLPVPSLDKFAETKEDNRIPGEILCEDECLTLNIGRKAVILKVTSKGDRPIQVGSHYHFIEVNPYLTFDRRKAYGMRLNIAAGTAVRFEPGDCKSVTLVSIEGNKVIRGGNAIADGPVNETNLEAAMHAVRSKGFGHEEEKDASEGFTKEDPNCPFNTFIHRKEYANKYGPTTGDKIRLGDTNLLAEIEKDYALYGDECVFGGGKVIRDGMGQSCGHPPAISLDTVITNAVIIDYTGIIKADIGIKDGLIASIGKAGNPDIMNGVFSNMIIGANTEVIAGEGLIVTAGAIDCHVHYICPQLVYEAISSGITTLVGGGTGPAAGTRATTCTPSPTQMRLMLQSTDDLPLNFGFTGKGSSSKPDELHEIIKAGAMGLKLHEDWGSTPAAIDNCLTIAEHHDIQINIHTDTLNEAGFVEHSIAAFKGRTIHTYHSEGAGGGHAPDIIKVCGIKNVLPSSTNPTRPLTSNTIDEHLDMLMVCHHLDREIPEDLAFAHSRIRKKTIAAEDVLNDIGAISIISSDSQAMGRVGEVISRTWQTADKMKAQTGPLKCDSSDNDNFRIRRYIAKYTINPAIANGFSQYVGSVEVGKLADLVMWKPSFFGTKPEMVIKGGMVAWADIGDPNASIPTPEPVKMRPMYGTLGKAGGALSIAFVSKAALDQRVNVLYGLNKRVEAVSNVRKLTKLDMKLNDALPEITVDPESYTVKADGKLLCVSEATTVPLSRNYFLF
Assay type: biochemical, Canavalia ensiformis (Jack bean)
Procedure: Chalcones are important medicinal compounds to combat several pathological conditions associated with ureolytic enzymes (urease). […] Urease inhibition assay was performed according to the reported protocol by Pervez et al..
All reagents and solvents were obtained from the supplier or recrystallized or redistilled as necessary. Thin-layer chromatography was performed using aluminum sheets (Merck) coated with silica gel 60 F254. Urease enzyme was purchased from Canavalia ensiformis (Jack bean), CAS Number: 9002-13-5. IR spectra were recorded using an IR PerkinElmer Spectrum 1 FTIR spectrophotometer, and peaks were reported as ax (neat)/cm^−1, which refer to the […] wave numbers. Proton magnetic resonance spectra were recorded in CDCl3 with a Bruker AM 300 spectrometer (Rheinstetten-Forchheim, Germany) operating at 300 MHz, respectively. The ^13C NMR spectra were recorded in CDCl3 with a Bruker AM 100 spectrometer operating at 100 MHz. Tetramethylsilane was used as an internal standard. Elemental analyses for C, H, and N were recorded with the PerkinElmer 2400 Series II CHN Analyzer. Melting points were recorded on a GallenKamp apparatus and are uncorrected.
The enzyme assay is a modified form of the commonly known Berthelot assay. A total volume of 85 µL assay mixture contained 10 µL of phosphate buffer at pH 7.0 in each well of the 96-well plate, to which 10 µL of sample solution and 25 µL of enzyme solution (0.1347 units) were added. The contents were pre-incubated at 37 °C for 5 min. Then, 40 µL of urea stock solution (20 mM) was added to each well, and incubation continued at 37 °C for another 10 min. After the given time, 115 µL phenol hypochlorite reagent was added to each well (freshly prepared by mixing 45 µL phenol reagent with 70 µL of alkali reagent). For color development, incubation was performed at 37 °C for another 10 min. Absorbance was measured at 625 nm using the 96-well plate reader Synergy HT.
Compound O=C(/C=C/c1ccc(-c2ccc([N+](=O)[O-])cc2)o1)c1ccccc1 [Compound 4a] has an IC50 of 91.9 ± 2.24 µM.
In the case of O=C(/C=C/c1ccc(-c2ccc(Cl)cc2)o1)c1ccccc1 [Compound 4b], the “urease inhibition activity (in words)” value is reported as “inactive”.
In the case of O=C(/C=C/c1ccc(-c2ccc(Br)cc2)o1)c1ccccc1 [Compound 4c], the “urease inhibition activity (in words)” value is reported as “inactive”.
In the case of O=C(/C=C/c1ccc(-c2cccc([N+](=O)[O-])c2)o1)c1ccccc1 [Compound 4d], the “urease inhibition activity (in words)” value is reported as “inactive”.
With O=C(O)c1ccc(-c2ccc(/C=C/C(=O)c3ccccc3)o2)cc1 [Compound 4e] the IC50 was 25 ± 1.77 µM and the “urease inhibition activity (in words)” value was “inactive”.
Work on O=C(/C=C/c1ccc(-c2ccc(Cl)c(Cl)c2)o1)c1ccccc1 [Compound 4f, 1-phenyl-3-[5-(3′,4′-dichlorophenyl) -2-furyl]-2-propen-1-one] yielded an IC50 of 21 ± 3.52 µM.
O=C(/C=C/c1ccc(-c2cc(Cl)cc(Cl)c2)o1)c1ccccc1 [Compound 4g] was tested, and the “urease inhibition activity (in words)” value was “inactive”.
Compound O=C(/C=C/c1ccc(-c2cc(Cl)ccc2Cl)o1)c1ccccc1 [Compound 4h, 1-phenyl-3-[5-(2′,5′-dichlorophenyl)-2-furyl]-2-propen-1-one] has an IC50 of 16.1 ± 2.45 µM.
Work on O=C(/C=C/c1ccc(-c2cc(Cl)ccc2[N+](=O)[O-])o1)c1ccccc1 [Compound 4i] yielded an IC50 of 90.8 ± 8.99 µM.
O=C(/C=C/c1ccc(-c2cccc(Cl)c2[N+](=O)[O-])o1)c1ccccc1 [Compound 4j] showed an IC50 of 26 ± 2.25 µM.
O=C(/C=C/c1ccc(-c2cccc(Cl)c2)o1)c1ccccc1 [Compound 4k] was tested, and the IC50 was 23.1 ± 3.65 µM.
With O=C(/C=C/c1ccc(-c2ccccc2[N+](=O)[O-])o1)c1ccccc1 [Compound 4l] the IC50 was 91.4 ± 6.25 µM.
For O=C(/C=C/c1ccc(-c2ccc([N+](=O)[O-])cc2Cl)o1)c1ccccc1 [Compound 4m], the IC50 was 26.7 ± 0.65 µM.
O=C(O)c1cccc(-c2ccc(/C=C/C(=O)c3ccccc3)o2)c1 [Compound 4n] gave an IC50 of 46.8 ± 5.44 µM.
In the case of O=C(/C=C/c1ccc(-c2ccc(Cl)cc2Cl)o1)c1ccccc1 [Compound 4o], the IC50 is reported as 34 ± 9.61 µM.
Cc1cc(-c2ccc(/C=C/C(=O)c3ccccc3)o2)cc([N+](=O)[O-])c1 [Compound 4p] gave an IC50 of 52.6 ± 8.52 µM.
In the case of O=C(/C=C/c1ccc(-c2ccc([N+](=O)[O-])cc2[N+](=O)[O-])o1)c1ccccc1 [Compound 4q], the IC50 is reported as 44.4 ± 6.91 µM.
In the case of Cc1c(-c2ccc(/C=C/C(=O)c3ccccc3)o2)cccc1[N+](=O)[O-] [Compound 4r], the “urease inhibition activity (in words)” value is reported as “inactive”.
Compound O=C(/C=C/c1ccc(-c2ccccc2Cl)o1)c1ccccc1 [Compound 4s, 1-phenyl-3-[5-(2′-chlorophenyl)-2-furyl]-2-propen-1-one] has an IC50 of 18.7 ± 0.85 µM.

Same assay, conditions: read-out: %Age Urease Inhibition Activity (0.1 mM)
O=C(/C=C/c1ccc(-c2ccc([N+](=O)[O-])cc2)o1)c1ccccc1 [Compound 4a] was tested, and the inhibition at 100 µM was 50.7 ± 0.62%.
O=C(/C=C/c1ccc(-c2ccc(Cl)cc2)o1)c1ccccc1 [Compound 4b] gave an inhibition at 100 µM of 27.15 ± 0.17%.
In the case of O=C(/C=C/c1ccc(-c2ccc(Br)cc2)o1)c1ccccc1 [Compound 4c], the inhibition at 100 µM is reported as 39.41 ± 0.34%.
For O=C(/C=C/c1ccc(-c2cccc([N+](=O)[O-])c2)o1)c1ccccc1 [Compound 4d], the inhibition at 100 µM was 46.5 ± 0.91%.
Work on O=C(O)c1ccc(-c2ccc(/C=C/C(=O)c3ccccc3)o2)cc1 [Compound 4e] yielded an inhibition at 100 µM of 65.5 ± 0.77%.
With O=C(/C=C/c1ccc(-c2ccc(Cl)c(Cl)c2)o1)c1ccccc1 [Compound 4f, 1-phenyl-3-[5-(3′,4′-dichlorophenyl) -2-furyl]-2-propen-1-one] the inhibition at 100 µM was 69.7 ± 1.86%.
O=C(/C=C/c1ccc(-c2cc(Cl)cc(Cl)c2)o1)c1ccccc1 [Compound 4g] showed an inhibition at 100 µM of 39.7 ± 2.46%.
With O=C(/C=C/c1ccc(-c2cc(Cl)ccc2Cl)o1)c1ccccc1 [Compound 4h, 1-phenyl-3-[5-(2′,5′-dichlorophenyl)-2-furyl]-2-propen-1-one] the inhibition at 100 µM was 66.2 ± 1.36%.
O=C(/C=C/c1ccc(-c2cc(Cl)ccc2[N+](=O)[O-])o1)c1ccccc1 [Compound 4i] showed an inhibition at 100 µM of 51.7 ± 1.62%.
Work on O=C(/C=C/c1ccc(-c2cccc(Cl)c2[N+](=O)[O-])o1)c1ccccc1 [Compound 4j] yielded an inhibition at 100 µM of 68.24 ± 0.11%.
With O=C(/C=C/c1ccc(-c2cccc(Cl)c2)o1)c1ccccc1 [Compound 4k] the inhibition at 100 µM was 69.52 ± 0.16%.
With O=C(/C=C/c1ccc(-c2ccccc2[N+](=O)[O-])o1)c1ccccc1 [Compound 4l] the inhibition at 100 µM was 51.47 ± 0.41%.
O=C(/C=C/c1ccc(-c2ccc([N+](=O)[O-])cc2Cl)o1)c1ccccc1 [Compound 4m] showed an inhibition at 100 µM of 63.1 ± 0.86%.
O=C(O)c1cccc(-c2ccc(/C=C/C(=O)c3ccccc3)o2)c1 [Compound 4n] showed an inhibition at 100 µM of 62.3 ± 1.28%.
O=C(/C=C/c1ccc(-c2ccc(Cl)cc2Cl)o1)c1ccccc1 [Compound 4o] was tested, and the inhibition at 100 µM was 54.9 ± 1.98%.
Compound Cc1cc(-c2ccc(/C=C/C(=O)c3ccccc3)o2)cc([N+](=O)[O-])c1 [Compound 4p] has an inhibition at 100 µM of 57.4 ± 3.02%.
O=C(/C=C/c1ccc(-c2ccc([N+](=O)[O-])cc2[N+](=O)[O-])o1)c1ccccc1 [Compound 4q] showed an inhibition at 100 µM of 54.7 ± 0.73%.
Compound Cc1c(-c2ccc(/C=C/C(=O)c3ccccc3)o2)cccc1[N+](=O)[O-] [Compound 4r] has an inhibition at 100 µM of 12.6 ± 3.37%.
O=C(/C=C/c1ccc(-c2ccccc2Cl)o1)c1ccccc1 [Compound 4s, 1-phenyl-3-[5-(2′-chlorophenyl)-2-furyl]-2-propen-1-one] was tested, and the inhibition at 100 µM was 71.4 ± 1.77%.
